According to patent publication US8143374B2, “Polypeptide derivatives of parathyroid hormone (PTH)” (The General Hospital Corporation, priority 2006, dated 2012):
Several values for one entry are separate records, joined by “and”; a condition that tells them apart may be missing. Equal values may be shown once. Read-outs that look alike come from different tables or passages of the source. Where a SMILES comes first, the peptide text is derived from it. Where no end group is shown, it is not given here. [ ]: non-standard residue; d: D form. Apa = (S)-2-amino-4[(2-amino)pyrimidinyl]methylalanine; Phe(4-guanidino) = N=C(N)Nc1ccc(C[C@H](N)C(=O)O)cc1; Cha = N[C@@H](CC1CCCCC1)C(=O)O; Orn = NCCC[C@H](N)C(=O)O

Target: T1, PTHR-delNt (Homo sapiens, UniProt Q03431, DEL24-181)
T1 construct: expressed in transfected cells; host or cells: COS-7 cells, transient co-transfection; membranes prepared
T1 sequence (Q03431 with tags, fused parts or gaps DEL24-181): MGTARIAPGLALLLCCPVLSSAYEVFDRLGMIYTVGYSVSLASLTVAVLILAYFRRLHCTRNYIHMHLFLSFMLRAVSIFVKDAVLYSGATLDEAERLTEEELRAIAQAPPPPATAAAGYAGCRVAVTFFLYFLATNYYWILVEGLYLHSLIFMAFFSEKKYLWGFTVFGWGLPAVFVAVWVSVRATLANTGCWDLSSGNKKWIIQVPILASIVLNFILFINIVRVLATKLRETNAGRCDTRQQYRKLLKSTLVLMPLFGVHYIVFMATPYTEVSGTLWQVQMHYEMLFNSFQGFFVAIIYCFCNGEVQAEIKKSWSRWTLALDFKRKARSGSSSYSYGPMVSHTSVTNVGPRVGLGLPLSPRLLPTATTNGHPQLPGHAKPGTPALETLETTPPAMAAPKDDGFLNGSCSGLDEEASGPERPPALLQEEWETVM
Assay: Competition binding in COS-7 cell membranes with 125I-[Aib1,3,M]PTH(1-15)NH2 tracer
Conditions: for reduction (alteration) of binding affinity for PTHR-delNt relative to parent peptide: versus the respective parent peptide; for IC50: COS-7 membranes cotransfected with negative-dominant Gαs
Method in brief: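 IC50 from four-parameter logistic fitting of specific tracer binding, extrapolated to maximal [Aib1,3,M]PTH(1-15)NH2 inhibition when displacement was incomplete. Competitor peptides (3×10^−9 to 1×10^−5 M) and 125I-[Aib1,3,M]PTH(1-15)NH2 were incubated 90 min, 21 °C, with membranes (20 µg/well) of COS-7 cells expressing N-terminally truncated (Δ24–181) human PTHR with dominant-negative Gαs; 1×10^−6 M unlabeled tracer peptide defined non-specific binding.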

[1] = [Ala1,Arg19]hPTH(1-31)NH2 analogs, read-out: PTHR-delNT (COS-7) IC50
[2] = hPTH(1-31)NH2 analogs, read-out: PTHR-delNT (COS-7) IC50

Molecule | reduction (alteration) of binding affinity for PTHR-delNt relative to parent peptide (COS-7 membranes) | IC50 [2] | also measured
AVSEIQLMHNLGKHLNSMRRVEWERKKLQDV-NH2 [Leu^24→Glu] | less than three-fold |  | effect on binding to PTHR-delNt (in words) (COS-7 membranes): only mildly impaired binding to PTHR-delNt; IC50 [1]: 1.04 µM
SVSEIQLMHNLGKHLNSMEQVEWLRKKLQDV-NH2 [Arg^20→Gln] |  | 10.3 µM | 
SVSEIQLMHNLGKHLNSMRRVEWLRKKLQDV-NH2 [Glu^19→Arg] |  | 1.23 µM | 
CC[C@H](C)[C@H](NC(=O)[C@H](CCC(=O)O)NC(=O)[C@H](CO)NC(=O)[C@@H](NC(=O)[C@H](C)N)C(C)C)C(=O)N[C@@H](CCC(N)=O)C(=O)N[C@@H](CC(C)C)C(=O)N[C@@H](CCSC)C(=O)N[C@@H](Cc1c[nH]cn1)C(=O)N[C@@H](CC(N)=O)C(=O)N[C@@H](CC(C)C)C(=O)NCC(=O)N[C@@H](CCCCN)C(=O)N[C@@H](Cc1c[nH]cn1)C(=O)N[C@@H](CC(C)C)C(=O)N[C@@H](CC(N)=O)C(=O)N[C@@H](CO)C(=O)N[C@@H](CCSC)C(=O)N[C@@H](CCCNC(=N)N)C(=O)N[C@@H](CC1CCCCC1)C(=O)N[C@H](C(=O)N[C@@H](CCC(=O)O)C(=O)N[C@@H](Cc1c[nH]c2ccccc12)C(=O)N[C@@H](CC(C)C)C(=O)N[C@@H](CCCNC(=N)N)C(=O)N[C@@H](CCCCN)C(=O)N[C@@H](CCCCN)C(=O)N[C@@H](CC(C)C)C(=O)N[C@@H](CCC(N)=O)C(=O)N[C@@H](CC(=O)O)C(=O)N[C@H](C(N)=O)C(C)C)C(C)C [Arg^20→Cha, AlaValSerGluIleGlnLeuMetHisAsnLeuGlyLysHisLeuAsnSerMetArgChaValGluTrpLeuArgLysLysLeuGlnAspVal] (H-AVSEIQLMHNLGKHLNSMR[Cha]VEWLRKKLQDV-NH2; N-terminus assumed) | three-fold or less |  | IC50 [1]: 0.632 ± 0.079 µM
AVSEIQLMHNLGKHLNSMRRVEWLREKLQDV-NH2 [Lys^26→Glu] |  |  | IC50 [1]: 0.832 ± 0.215 µM
CC[C@H](C)[C@H](NC(=O)[C@H](CCC(=O)O)NC(=O)[C@H](CO)NC(=O)[C@@H](NC(=O)[C@H](C)N)C(C)C)C(=O)N[C@@H](CCC(N)=O)C(=O)N[C@@H](CC(C)C)C(=O)N[C@@H](CCSC)C(=O)N[C@@H](Cc1c[nH]cn1)C(=O)N[C@@H](CC(N)=O)C(=O)N[C@@H](CC(C)C)C(=O)NCC(=O)N[C@@H](CCCCN)C(=O)N[C@@H](Cc1c[nH]cn1)C(=O)N[C@@H](CC(C)C)C(=O)N[C@@H](CC(N)=O)C(=O)N[C@@H](CO)C(=O)N[C@@H](CCSC)C(=O)N[C@@H](CCCNC(=N)N)C(=O)N[C@@H](CCCNC(=N)N)C(=O)N[C@H](C(=O)N[C@@H](CCC(=O)O)C(=O)N[C@@H](Cc1c[nH]c2ccccc12)C(=O)N[C@@H](CC(C)C)C(=O)N[C@@H](CCCNC(=N)N)C(=O)N[C@@H](CCCCN)C(=O)N[C@@H](CCCCN)C(=O)N[C@@H](CC(C)C)C(=O)N[C@@H](CCC(N)=O)C(=O)N[C@@H](CC1CCCCC1)C(=O)N[C@H](C(N)=O)C(C)C)C(C)C [Asp^30→Cha] (H-AVSEIQLMHNLGKHLNSMRRVEWLRKKLQ[Cha]V-NH2; N-terminus assumed) |  |  | IC50 [1]: 0.305 ± 0.126 µM
SVSEIQLMHNLGKHLNSMRRVAWLRKKLQDV-NH2 [Glu^19,22→Arg,Ala] |  | 0.36 ± 0.019 µM | 
SVSEIQLMHNLGKHLNSMERVAWLRKKLQDV-NH2 [Glu^22→Ala] |  | 5.86 µM | 
CC[C@H](C)[C@H](NC(=O)[C@H](CCC(=O)O)NC(=O)[C@H](CO)NC(=O)[C@@H](NC(=O)[C@@H](N)CO)C(C)C)C(=O)N[C@@H](CCC(N)=O)C(=O)N[C@@H](CC(C)C)C(=O)N[C@@H](CCSC)C(=O)N[C@@H](Cc1c[nH]cn1)C(=O)N[C@@H](CC(N)=O)C(=O)N[C@@H](CC(C)C)C(=O)NCC(=O)N[C@@H](CCCCN)C(=O)N[C@@H](Cc1c[nH]cn1)C(=O)N[C@@H](CC(C)C)C(=O)N[C@@H](CC(N)=O)C(=O)N[C@@H](CO)C(=O)N[C@@H](CCSC)C(=O)N[C@@H](CCC(=O)O)C(=O)N[C@@H](CCCN)C(=O)N[C@H](C(=O)N[C@@H](CCC(=O)O)C(=O)N[C@@H](Cc1c[nH]c2ccccc12)C(=O)N[C@@H](CC(C)C)C(=O)N[C@@H](CCCNC(=N)N)C(=O)N[C@@H](CCCCN)C(=O)N[C@@H](CCCCN)C(=O)N[C@@H](CC(C)C)C(=O)N[C@@H](CCC(N)=O)C(=O)N[C@@H](CC(=O)O)C(=O)N[C@H](C(N)=O)C(C)C)C(C)C [Arg^20→Orn] (H-SVSEIQLMHNLGKHLNSME[Orn]VEWLRKKLQDV-NH2; N-terminus assumed) |  | 5.53 µM | 
SVSEIQLMHNLGKHLNSMEKVEWLRKKLQDV-NH2 [Arg^20→Lys] |  | 7.11 µM | 
SVSEIQLMHNLGKHLNSMERVEWARKKLQDV-NH2 [Leu^24→Ala] | only two-fold | 8.76 µM | 
SVSEIQLMHNLGKHLNSMERVEWLRKKLQDA-NH2 [Val^31→Ala] |  | 4.91 µM | 
AVSEIQLMHNLGKHLNSMRRVEWLRKELQDV-NH2 [Lys^27→Glu] |  |  | IC50 [1]: 1.27 µM
SVSEIQLMHNLGKHLNSMEEVEWLRKKLQDV [Arg^20→Glu] | less than three-fold | 14.7 µM | reduction (alteration) of binding affinity for PTHR-delNt relative to parent peptide (COS-7 membranes, listed as Arg^20 to Glu substitution in PTH(1-31)NH2): approximately four-fold reduction; IC50 [1]: 0.776 ± 0.38 µM
SVSEIQLMHNLGKHLNSMERVEWLRKKAQDV-NH2 [Leu^28→Ala] |  | 3.46 µM | 
SVSEIQLMHNLGKHLNSMEAVEWLRKKLQDV-NH2 [Arg^20→Ala] | approximate five-fold reduction | 19.3 µM | 
SVSEIQLMHNLGKHLNSMARVEWLRKKLQDV-NH2 [Glu^19→Ala] |  | 2.94 µM | 
Arg^20→Apa: hPTH(1-31)NH2 analog with Arg^20 replaced by (S)-2-amino-4[(2-amino)pyrimidinyl]methylalanine (Apa) (SVSEIQLMHNLGKHLNSME[Apa]VEWLRKKLQDV-NH2) |  | 5.74 µM | 
SVSEIQLMHNLGKHLNSMERVEWLAKKLQDV-NH2 [Arg^25→Ala] |  | 7.18 µM | 
SVSEIQLMHNLGKHLNSMARVAWLRKKLQDV-NH2 [Glu^19,22→Ala,Ala] |  | 0.619 ± 0.075 µM | 
SVSEIQLMHNLGKHLNSMERVEWLRKKLADV-NH2 [Gln^29→Ala] |  | 1.93 µM | 
AVSEIQLMHNLGKHLNSMRREEWLRKKLQDV-NH2 [Val^21→Glu] | about four-fold |  | IC50 (PTHR-delNT (COS-7) IC50, [Ala1,Arg19]hPTH(1-31)NH2 analogs): 1.61 µM
SVSEIQLMHNLGKHLNSMERAEWLRKKLQDV-NH2 [Val^21→Ala] |  | 5.69 µM | 
AVSEIQLMHNLGKHLNSMRRVEWLEKKLQDV-NH2 [Arg^25→Glu] | about four-fold |  | IC50 [1]: 1.63 µM
AVSEIQLMHNLGKHLNSMERVEWLRKKLQDV-NH2 [Arg^19→Glu] | 50 fold and 90 fold |  | 
SVSEIQLMHNLGKHLNSMERVEWLRAKLQDV-NH2 [Lys^26→Ala] |  | 6.21 µM | 
SVSEIQLMHNLGKHLNSMERVEALRKKLQDV-NH2 [Trp^23→Ala] | only two-fold | 7.36 µM | 
SVSEIQLMHNLGKHLNSMERVEWLRKALQDV-NH2 [Lys^27→Ala] |  | 7.29 µM | 
CC[C@H](C)[C@H](NC(=O)[C@H](CCC(=O)O)NC(=O)[C@H](CO)NC(=O)[C@@H](NC(=O)[C@@H](N)CO)C(C)C)C(=O)N[C@@H](CCC(N)=O)C(=O)N[C@@H](CC(C)C)C(=O)N[C@@H](CCSC)C(=O)N[C@@H](Cc1c[nH]cn1)C(=O)N[C@@H](CC(N)=O)C(=O)N[C@@H](CC(C)C)C(=O)NCC(=O)N[C@@H](CCCCN)C(=O)N[C@@H](Cc1c[nH]cn1)C(=O)N[C@@H](CC(C)C)C(=O)N[C@@H](CC(N)=O)C(=O)N[C@@H](CO)C(=O)N[C@@H](CCSC)C(=O)N[C@@H](CCC(=O)O)C(=O)N[C@@H](Cc1ccc(NC(=N)N)cc1)C(=O)N[C@H](C(=O)N[C@@H](CCC(=O)O)C(=O)N[C@@H](Cc1c[nH]c2ccccc12)C(=O)N[C@@H](CC(C)C)C(=O)N[C@@H](CCCNC(=N)N)C(=O)N[C@@H](CCCCN)C(=O)N[C@@H](CCCCN)C(=O)N[C@@H](CC(C)C)C(=O)N[C@@H](CCC(N)=O)C(=O)N[C@@H](CC(=O)O)C(=O)N[C@H](C(N)=O)C(C)C)C(C)C [Arg^20→Gph] (H-SVSEIQLMHNLGKHLNSME[Phe(4-guanidino)]VEWLRKKLQDV-NH2; N-terminus assumed) |  | 2.05 µM | 
